Test results: patent US12318365B2, “Inhibition of dipeptide repeat proteins” (ALS Therapy Development Institute, priority 2019, dated 2025)
No end group written: not given here.

Legend:
[1] = test system: NSC-34 motor-neuron-like cells; experiment: WST-1 assay (dysmetabolism) in NSC-34 cells; assay type: cell-based, Mouse; conditions: for dose dependence of abrogation of GR15-induced dysmetabolism / dose dependence of abrogation of PR15-induced dysmetabolism: dose range of the example
From the text: WST-1 Assay: The WST-1 assay is a colorimetric assay that measures cell metabolism. Cells with a healthy metabolism contain mitochondrial dehydrogenase enzymes that remove hydrogen atoms from certain molecules, resulting in a release of energy that the cell can use to perform critical reactions. In the WST-1 assay, a water soluble tetrazolium salt substrate (known as WST-1) is applied, which readily enters cells and their mitochondria upon application. If cells are viable, their mitochondrial dehydrogenase enzymes will catalyze the reaction to convert this WST-1 substrate to a colored product called Formazan. The production of this colored Formazan product by viable cells can be quantified using a spectrophotometer (plate reader). Higher absorbance readings correspond to greater metabolic activity/cell viability.
NSC-34 Cell Culture: NSC-34 cells (Cedarlane Laboratories, Burlington, ON, CA) were cultured in a complete medium consisting of High Glucose Dulbecco's Modified Eagle Medium (Millipore-Sigma, Burlington, MA, USA) supplemented with 10% US-origin fetal bovine serum (Thermo-Fisher Scientific, Cambridge, MA, USA), 1% 200 mM L-Glutamine solution (Thermo-Fisher Scientific, Cambridge, MA, USA), and 1% 10,000 U/mL Penicillin-Streptomycin solution (Thermo-Fisher Scientific, Cambridge, MA, USA). Prior to preparation of NSC-34 complete medium, L-Glutamine and Penicillin-Streptomycin solutions were aliquoted and stored at −20° C., and DMEM/High Glucose was stored at 4°. […] Prepared complete medium, DPBS, and Trypsin were always heated in a 37° C. water bath before use, and stored at 4° C. between uses. Cell counts for plating were performed using a Hausser Scientific cell counting chamber (Thermo-Fisher Scientific, Cambridge, MA, USA).
Proteins were reconstituted in sterile DMSO (Millipore-Sigma, Burlington, MA, USA) to stock concentrations of 10 mM, and stored at 4° C.
After reconstitution using the solvents specified in Table _, stocks were aliquoted to 15-20 μL and immediately stored at −20° C.
One row on the top and bottom of the plate, and two columns on either side of the plate, were left without cells and contained culture medium only to minimize experimental well volume evaporation. After plating, cells were incubated for 24 h at 37° C., 5% CO2 prior to DRP and/or PRMT inhibitor addition. At time of DRP/PRMT inhibitor addition, desired doses of DRP for challenge and inhibitor for treatment were achieved by diluting aliquots of each stock in warm culture medium. During experiments where both PRMT inhibitors and DRPs were used, PRMT inhibitors were always applied to wells first, and followed by DRP application. […] Inhibitor toxicity controls were included as wells treated with the desired doses of drug for the experiment, but no DRP. DRP toxicity controls were included as wells only treated with the doses of DRP used for challenge. […] Additional controls needed for each endpoint are specified in the “WST-1 Assay” and “LDH Assay” sections of these methods.
WST-1 Assay: Cells were plated and prepared using the steps described in the “Plating NSC-34 and Dosing with DRPs and PRMT Inhibitors” section of these methods. Other controls for this experiment included wells containing only cells in culture medium, and culture medium only. At time of testing, culture medium was removed from wells and replaced with a warmed, sterile-filtered solution consisting of DPBS with calcium and magnesium, and 4.5 g/L D-glucose (Millipore-Sigma, Burlington, MA, USA). To wells containing 200 μL DPBS-glucose solution, 20 μL/well WST-1 reagent (Millipore-Sigma, Burlington, MA) was applied and plates were then incubated at 37° C., 5% CO2 for 1 h before plates were read at 450 nm on a SpectraMax M3 Microplate Reader (Molecular Devices, San Jose, CA, USA). Experiments included three replicates per condition.

NSC-34 cells = experiment: LDH assay (cytotoxicity) in NSC-34 cells; assay type: cell-based; conditions: for dose dependence of abrogation of GR15-induced cytotoxicity / dose dependence of abrogation of PR15-induced cytotoxicity: dose range of the example
From the text: LDH Assay: The LDH assay is a colorimetric assay that measures cell toxicity and death. […] When cells lose membrane integrity, an enzyme found in living cells called lactate dehydrogenase (LDH) is released into the solution surrounding the dying cell. A form of programmed cell death, apoptosis, as well as other forms of cell death also ultimately lead to a cell's membrane being destroyed, resulting in a large release of LDH into the extracellular space. Thus, LDH is an excellent marker not only for necrosis, but for all instances of cell death. In an LDH assay, a sample of the solution surrounding the cell is isolated, and transferred to a plate containing an LDH reaction mixture. This reaction mixture contains a tetrazolium salt intermediate and other reaction constituents that, when exposed to LDH, convert the tetrazolium salt into a colored Formazan product. This Formazan product can be quantified spectrophotometrically. Greater absorbance readings correspond to more cell death.
One row on the top and bottom of the plate, and two columns on either side of the plate, were left without cells and contained culture medium only to minimize experimental well volume evaporation. After plating, cells were incubated for 24 h at 37° C., 5% CO2 prior to DRP and/or PRMT inhibitor addition. At time of DRP/PRMT inhibitor addition, desired doses of DRP for challenge and inhibitor for treatment were achieved by diluting aliquots of each stock in warm culture medium. During experiments where both PRMT inhibitors and DRPs were used, PRMT inhibitors were always applied to wells first, and followed by DRP application. […] Inhibitor toxicity controls were included as wells treated with the desired doses of drug for the experiment, but no DRP. DRP toxicity controls were included as wells only treated with the doses of DRP used for challenge. Once dosed, plates were incubated for 24 h at 37° C., 5% CO2 prior to running the WST-1 or LDH assay endpoints. Additional controls needed for each endpoint are specified in the “WST-1 Assay” and “LDH Assay” sections of these methods.
LDH Assay: Cells were plated and prepared using the steps described in the “Plating NSC-34 and Dosing with DRPs and PRMT Inhibitors” section of these methods. Other controls for this experiment included several sets of wells with only cells in culture medium (one triplicate designated for “untreated,” one triplicate designated for “lysed” positive control), and wells with culture medium only. An additional control added only to the transfer plate at time of testing was 5 μL LDH only. Testing was performed using colorimetric LDH-Cytotoxicity Assay Kit II (Abcam, Cambridge, MA, USA) per manufacturer's instructions. Final read at 450 nm was performed on a SpectraMax M3 Microplate Reader (Molecular Devices, San Jose, CA, USA). Data analysis included calculation of % LDH release using the following equation: […]
Experiments included three replicates per condition. Each experiment was repeated twice (executed three times total).
(§1) The following conditions were plated in triplicate.
Plates were incubated for 24 h at 37° C., 5% CO2. Cells were tested and data were analyzed by LDH assay.
Cells were plated in culture medium in 2 96-well plates at a density of 3.7×10^4 cells per well, and incubated overnight at 37° C., 5% CO2.
as §1
Cells were plated in culture medium in 2 96-well plates at a density of 3.7×10^4 cells per well, and incubated overnight at 37° C., 5% CO2. […]
The following conditions were plated in triplicate. […]

[2] = 3 μM GR15, 24 h, doses 0.2-20 μM

## CC(C)Oc1ccc(-c2c[nH]cc2CN(C)CCO)cc1 [MS094]
[1]; 3 μM GR15 challenge, 24 h, over all tested doses of the inhibitor
  abrogation of GR15-induced dysmetabolism: No doses of negative control MS094 abrogated dysmetabolism
[1]; 3 μM PR15 challenge, 24 h, over all tested doses of the inhibitor
  abrogation of PR15-induced dysmetabolism: No doses of negative control MS094 abrogated dysmetabolism
NSC-34 cells; 3 μM GR15, 24 h, over all tested doses (0.2-60 μM)
  abrogation of GR15-induced cytotoxicity: No doses of negative control MS094 abrogated cytotoxicity
NSC-34 cells; 3 μM PR15, 24 h, over all tested doses (0.2-60 μM)
  abrogation of PR15-induced cytotoxicity: No doses of negative control MS094 abrogated cytotoxicity
NSC-34 cells; no DRP, doses 10, 30 and 60 μM, at highest 2 doses likely DMSO-related
  cytotoxicity of inhibitor alone vs untreated controls: produced cytotoxicity

## O=C(NC[C@H](O)CN1CCc2ccccc2C1)c1ccnc(NC2CCC2)c1 [GSK591]
[1]; no DRP, doses 33, 100 and 200 μM
  dysmetabolism independently of PR15 challenge vs untreated controls: produced dysmetabolism

## CCOCC1(COCC)CCC(c2n[nH]cc2CN(C)CCNC)CC1 [GSK3368715]
[1]; 3 μM GR15 challenge, 24 h
  dose dependence of abrogation of GR15-induced dysmetabolism: dose-dependently abrogated
[1]; 3 μM GR15 challenge, 24 h, inhibitor doses 1 and 3 μM
  abrogation of GR15-induced dysmetabolism: completely abrogated
[1]; 3 μM PR15 challenge, 24 h
  dose dependence of abrogation of PR15-induced dysmetabolism: dose-dependently abrogated
[1]; 3 μM PR15 challenge, 24 h, inhibitor doses 1 and 3 μM
  abrogation of PR15-induced dysmetabolism: completely abrogated
NSC-34 cells; 3 μM GR15, 24 h, dose 1 μM
  abrogation of GR15-induced cytotoxicity: completely abrogated
NSC-34 cells; 3 μM GR15, 24 h
  dose dependence of abrogation of GR15-induced cytotoxicity: dose-dependently abrogated
NSC-34 cells; 3 μM PR15, 24 h, dose 1 μM
  abrogation of PR15-induced cytotoxicity: completely abrogated
NSC-34 cells; 3 μM PR15, 24 h, dose 3 μM
  abrogation of PR15-induced cytotoxicity: nearly completely abrogated
NSC-34 cells; 3 μM PR15, 24 h
  dose dependence of abrogation of PR15-induced cytotoxicity: dose-dependently abrogated
NSC-34 cells; no DRP, all doses (0.1-10 μM), likely solvent effects
  cytotoxicity independently of GR15 and PR15 challenge: induced low levels of cytotoxicity

## ADMe-GR15: asymmetrically dimethylated GR15, synthesized protein (Eurogentec) (GRGRGRGRGRGRGRGRGRGRGRGRGRGRGR; also: asymmetric arginine dimethylation, extent/places not given here)
[1]
  dysmetabolism compared with non-methylated GR15: consistently producing more dysmetabolism than non-methylated GR15
NSC-34 cells
  cytotoxicity compared with non-methylated GR15: consistently producing more cytotoxicity than non-methylated GR15

## CNCCN(C)Cc1c[nH]nc1-c1ccc(OC2CC(OCCC3CCOCC3)C2)cc1 (centres unmarked) [EPZ020411]
[1]; [2]
  dose with the greatest abrogation of GR15-induced dysmetabolism: 20 µM
[1]; 3 μM GR15, 24 h, inhibitor doses 2, 10 and 20 μM
  abrogation of GR15-induced dysmetabolism: partially abrogated
[1]; 3 μM GR15 challenge, 24 h
  dose dependence of abrogation of GR15-induced dysmetabolism: dose-dependently abrogated
[1]; 3 μM PR15, 24 h, inhibitor doses 10 and 20 μM
  abrogation of PR15-induced dysmetabolism: completely abrogated
[1]; 3 μM PR15 challenge, 24 h
  dose dependence of abrogation of PR15-induced dysmetabolism: dose-dependently abrogated
[1]; no DRP, doses 10 and 20 μM, not attributable to DMSO
  dysmetabolism independently of GR and PR challenge: did cause significant dysmetabolism
[1]; no DRP, other doses tested (0.2, 1, 2 μM)
  dysmetabolism independently of GR and PR challenge: not at other doses tested
NSC-34 cells; 3 μM GR15, 24 h, all doses but 0.2 μM (1, 2, 10, 20 μM)
  abrogation of GR15-induced cytotoxicity: partially abrogated
NSC-34 cells; 3 μM GR15, 24 h
  dose dependence of abrogation of GR15-induced cytotoxicity: dose-dependently abrogated
NSC-34 cells; [2]
  dose with the greatest effect on GR15-induced cytotoxicity: 20 µM
NSC-34 cells; 3 μM PR15, 24 h, all doses but 0.2 μM (1, 2, 10, 20 μM)
  abrogation of PR15-induced cytotoxicity: partially abrogated
NSC-34 cells; 3 μM PR15, 24 h
  dose dependence of abrogation of PR15-induced cytotoxicity: dose-dependently abrogated
NSC-34 cells; 3 μM PR15, 24 h, doses 0.2-20 μM
  dose with the greatest effect on PR15-induced cytotoxicity: 20 µM
NSC-34 cells; no DRP, doses 10 and 20 μM
  cytotoxicity independently of GR and PR challenge: did cause significant cytotoxicity
